Measured values from PMC8042770, “Odorant Receptors for Detecting Flowering Plant Cues Are Functionally Conserved across Moths and Butterflies” (Molecular Biology and Evolution, 2020).
Entries after “also recorded” stand apart in the source; their conditions may differ.

Assays:
[1] = molecular target: HarmOR59 (Helicoverpa armigera, UniProt A0A7T3KAU6); assay: Xenopus oocyte two-electrode voltage clamp, HarmOR59 + Orco; format: cell-based
Method: (§1) In order to expand our analysis on the response properties of HarmORs, we conducted dose–response analyses for the 28 functional HarmORs. […] Six HarmORs (OR3, 22, 48, 50, 56, and 66) could not be activated by any ligand at 10^−5 M. For the other 22 HarmORs, dose–response curves were generated and EC50 values of their major ligands were calculated (fig. 2A and supplementary table S2, Supplementary Material online). The HarmOR repertoire was highly efficient in terpene detection, since the lowest EC50 values were obtained for such compounds. Many of these terpenes have been proposed to be defensive chemicals of plants. […] DMNT is also one of the oviposition deterring compounds found in larval frass of some Lepidoptera species such as S. littoralis ([Anderson et al. 1993]).
(§2) Functional characterization of individual ORs was performed by heterologous expression in Xenopus oocytes combined with a two-electrode voltage-clamp system ([Wang et al. 2010]). Briefly, the full-length gene of each OR and Orco were subcloned into the eukaryotic expression vector pT7TS. cRNAs were generated from linearized expression vectors using the mMESSAGE mMACHINE T7 kit (Ambion, Austin, TX). Then, the cRNA mixture of ORx and Orco (27.6 ng each) was injected (Nanoliter 2010, WPI Inc., Sarasota, FL) into oocytes (stage V–VII). The respective Orcos of different species were used for functional studies of OR42 orthologs except for the four butterfly species (V. tameamea, P. xuthus, D. plexippus, and P. rapae), in which we used the Orco from P. xuthus. After incubation in nutrient solution at 18 °C for 3–5 days, the response profile of each oocyte to multiple plant odorants was recorded via a two-electrode voltage clamp (OC-725C oocyte clamp, Warner Instruments, Hamden, CT) at a holding potential of −80 mV. Data were acquired by using a Digidata 1440 A and were analyzed by pCLAMP 10.2 software (Axon Instruments Inc., Union City, CA).
(§3) Stock solutions of each odorant were prepared at 1 M using DMSO as a solvent, and each odorant was diluted in 1× Ringer’s solution to the indicated concentrations for electrophysiological recording. For functional screening of each HarmOR, a panel of 67 odorants belonging to three types of chemical classes: terpenes, aromatics, and aliphatics (short-chain fatty acid) were used (supplementary table S1, Supplementary Material online). For functional studies of OR42 orthologs from different species, six odorants including PAA, benzaldehyde, (E)-2-hexen-1-al, cinnamaldehyde, 2-phenylethanol, and heptanal were used.

[2] = molecular target: HarmOR10 (Helicoverpa armigera, UniProt A0A0G2RLT6); assay: Xenopus oocyte two-electrode voltage clamp, HarmOR10 + Orco; format: cell-based
Method: as §1
(§4) Functional characterization of individual ORs was performed by heterologous expression in Xenopus oocytes combined with a two-electrode voltage-clamp system ([Wang et al. 2010]). […] After incubation in nutrient solution at 18 °C for 3–5 days, the response profile of each oocyte to multiple plant odorants was recorded via a two-electrode voltage clamp (OC-725C oocyte clamp, Warner Instruments, Hamden, CT) at a holding potential of −80 mV. Data were acquired by using a Digidata 1440 A and were analyzed by pCLAMP 10.2 software (Axon Instruments Inc., Union City, CA). […]

[3] = test system: H. armigera moth antennae; assay: Electroantennography (EAG), wild-type vs HarmOR42 knock-out moths; format: in vivo, Helicoverpa armigera; details: single odorants, 1 μg
Excerpt: We next conducted a loss-of-function study by generating a HarmOR42-lacking H. armigera strain by CRISPR/Cas9 targeting the first coding exon. Homozygous mutants were obtained with a large segment deletion of 203 bp and a 6-bp nonhomologous insertion in the genome (fig. 6B), introducing a premature stop codon in the coding sequence. […] The most likely hypothesis is that HarmOR42 is not the major receptor for sensing this compound in H. armigera. As a control, we tested the response of male moths to the sex pheromone component Z11-16: Ald that is not a ligand of HarmOR42. As expected, we observed no difference between the EAG responses of mutant and wild-type moths to this compound.
The antennae of 2- to 3-day-old virgin male and female moths were cut at the base of the flagellum. After removing the tip, one antenna was inserted between two glass electrodes filled with 0.1 M KCl solution. In each test, a 10-μl solution of each odorant was added onto a piece of filter paper (0.5 cm × 0.5 cm) and then inserted into a Pasteur pipette. About 100 ng/μl stock solutions of individual odorants and different doses of the mixture IAC were prepared with paraffin oil. A continuous airflow of 30 ml/s was produced by a stimulus controller (CS-55, Syntech, Kirchzarten, Germany). Odor stimulation was controlled by a puff of purified air (0.2 s at 10 ml/s airflow) from the CS-55. EAG signals were amplified with a 10× AC/DC headstage preamplifier (Syntech) and further acquired with an Intelligent Data Acquisition Controller (IDAC-4-USB, Syntech) ([Cao et al. 2016]). The signals were recorded, monitored, and analyzed using Syntech EAG-software (Syntech, Germany). The EAG response values for each compound were calculated by subtracting the value of the same antennae corresponding to a solvent blank of paraffin oil.

[4] = molecular target: HarmOR67 (Helicoverpa armigera, UniProt A0A7T3KAH1); assay: Xenopus oocyte two-electrode voltage clamp, HarmOR67 + Orco; format: cell-based; details: dose response in oocytes, unit M
Method: as §1
as §2, with “CA). […]” for “CA).”

[5] = molecular target: HarmOR42 (Helicoverpa armigera, UniProt A0A7T3KAF6); assay: Xenopus oocyte two-electrode voltage clamp, HarmOR42 + Orco; format: cell-based; details: 67 odorants at 10^−4 M
Excerpt: In preliminary screening, we used a high dosage (10^−4 M) of odorants. […] Most functional ORs responded robustly to multiple odorants. The strongest response (up to ∼6,000 nanoampere, nA) we detected was that of HarmOR42 toward the aromatic compound PAA. Further, the response profiles of the 28 HarmORs appeared to be highly differentiated, with no apparent overlap in their tuning spectra (with the exception of HarmOR12 and 36) according to functional cluster analysis (fig. 1A).
as §1, §2, §3

[6] = molecular target: T1, HarmOR19 (Helicoverpa armigera, UniProt A0A7T3N0J7); assay: Xenopus oocyte two-electrode voltage clamp, HarmOR19 + Orco; format: cell-based; details: dose response in oocytes, unit M
T1 sequence (A0A7T3N0J7 1-402): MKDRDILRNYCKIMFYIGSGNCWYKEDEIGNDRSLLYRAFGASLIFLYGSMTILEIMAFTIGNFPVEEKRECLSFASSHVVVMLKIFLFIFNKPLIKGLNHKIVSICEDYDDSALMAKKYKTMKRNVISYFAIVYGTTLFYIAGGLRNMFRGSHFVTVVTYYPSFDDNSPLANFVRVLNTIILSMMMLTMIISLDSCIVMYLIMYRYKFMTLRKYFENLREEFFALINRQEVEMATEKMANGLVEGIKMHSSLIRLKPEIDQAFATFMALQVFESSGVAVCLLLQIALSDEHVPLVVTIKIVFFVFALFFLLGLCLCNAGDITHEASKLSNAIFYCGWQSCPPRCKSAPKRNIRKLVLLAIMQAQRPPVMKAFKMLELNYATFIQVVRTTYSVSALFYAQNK
Method: as §1
as §2, with “CA). […]” for “CA).”

[7] = molecular target: T2, HarmOR27 (Helicoverpa armigera, UniProt A0A7T3KAG1); assay: Xenopus oocyte two-electrode voltage clamp, HarmOR27 + Orco; format: cell-based
T2 sequence (A0A7T3KAG1 1-426): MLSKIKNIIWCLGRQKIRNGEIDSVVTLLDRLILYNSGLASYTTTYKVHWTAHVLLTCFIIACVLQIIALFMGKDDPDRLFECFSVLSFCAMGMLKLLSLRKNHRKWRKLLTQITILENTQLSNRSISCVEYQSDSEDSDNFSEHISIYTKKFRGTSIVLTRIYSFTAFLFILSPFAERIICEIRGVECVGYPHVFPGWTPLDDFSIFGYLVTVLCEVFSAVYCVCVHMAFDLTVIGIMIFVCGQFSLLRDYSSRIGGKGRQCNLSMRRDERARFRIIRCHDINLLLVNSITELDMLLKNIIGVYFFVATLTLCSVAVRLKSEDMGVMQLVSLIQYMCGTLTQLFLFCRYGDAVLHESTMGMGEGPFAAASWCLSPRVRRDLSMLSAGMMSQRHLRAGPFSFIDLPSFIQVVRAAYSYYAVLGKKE
Method: as §1, §2, §3

[8] = test system: HarmOR42 orthologs from 11 lepidopteran species; assay: Xenopus oocyte voltage clamp of HarmOR42 orthologs, six-odorant screen; format: cell-based; details: six compounds at 10^−4 M; 11 species
Excerpt: We gathered additional experimental evidence to support this conservation of a PAA-sensing function by performing in vitro functional characterization of HarmOR42 orthologs from 11 lepidopteran species belonging to eight families (fig. 5B). […] It should be noted that the species studied here included three Noctuidae species (H. armigera, H. assulta, and Mythimna separata), four moths from Bombycidae (Bombyx mori), Crambidae (Chilo suppressalis), Sphingidae (Manduca sexta), and Tortricidae (Grapholitha molesta) ([Mitter et al. 2017]; [Kawahara et al. 2019]), and four diurnal butterfly species from diverse families (Vanessa tameamea, Papilio xuthus, Danaus plexippus, and Pieris rapae) (fig. 5B). […]
as §4

[9] = test system: EsemOR19; assay: Xenopus oocyte voltage clamp of EsemOR19; format: cell-based, Eriocrania semipurpurella; details: 10^−4 M
Excerpt: We also examined the response profile of EsemOR19 from E. semipurpurella, an OR that falls close to the HarmOR42-defined clade but that is not considered as a HarmOR42 ortholog. […] We also characterized the function of RnubOR13 from R. nubila (Trichoptera), a species from a sister order of Lepidoptera. […] Unfortunately, the putative E. semipurpurella OR that would consist of EsemOR34 + 35 and that falls at the base of the HarmOR42 clade could not be tested as it is incomplete.
Full-length coding sequences of 45 ORs (including Orco) of H. armigera, and OR42 and Orco orthologs in B. mori, H. assulta, G. molesta, and M. separate were amplified from the antennal cDNA of each species adults by PCR with specific primer pairs of each gene. […]
as §4

[10] = molecular target: HarmOR31 (Helicoverpa armigera, UniProt A0A7T3N2E9); assay: Xenopus oocyte two-electrode voltage clamp, HarmOR31 + Orco; format: cell-based; details: HarmOR31; dose response in oocytes; unit M; read-out: EC50
Excerpt: In order to expand our analysis on the response properties of HarmORs, we conducted dose–response analyses for the 28 functional HarmORs. […] Many of these terpenes have been proposed to be defensive chemicals of plants.
Briefly, the full-length gene of each OR and Orco were subcloned into the eukaryotic expression vector pT7TS. cRNAs were generated from linearized expression vectors using the mMESSAGE mMACHINE T7 kit (Ambion, Austin, TX). […] The respective Orcos of different species were used for functional studies of OR42 orthologs except for the four butterfly species (V. tameamea, P. xuthus, D. plexippus, and P. rapae), in which we used the Orco from P. xuthus.
as §3

Chain of HarmOR42 (A0A7T3KAF6 entry or part of it): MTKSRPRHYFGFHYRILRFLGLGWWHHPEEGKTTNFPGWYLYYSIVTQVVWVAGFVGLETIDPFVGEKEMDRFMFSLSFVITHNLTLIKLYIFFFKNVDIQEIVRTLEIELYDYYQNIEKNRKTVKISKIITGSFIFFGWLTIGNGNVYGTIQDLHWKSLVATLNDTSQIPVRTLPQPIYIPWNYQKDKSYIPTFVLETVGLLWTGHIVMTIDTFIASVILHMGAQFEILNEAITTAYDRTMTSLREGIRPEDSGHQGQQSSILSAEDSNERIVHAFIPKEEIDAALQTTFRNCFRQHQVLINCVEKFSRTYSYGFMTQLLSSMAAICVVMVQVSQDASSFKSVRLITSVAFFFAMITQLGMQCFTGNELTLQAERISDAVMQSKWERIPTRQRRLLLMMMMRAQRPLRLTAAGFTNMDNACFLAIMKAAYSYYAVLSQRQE
Chain of HarmOR10 (A0A0G2RLT6 1-390): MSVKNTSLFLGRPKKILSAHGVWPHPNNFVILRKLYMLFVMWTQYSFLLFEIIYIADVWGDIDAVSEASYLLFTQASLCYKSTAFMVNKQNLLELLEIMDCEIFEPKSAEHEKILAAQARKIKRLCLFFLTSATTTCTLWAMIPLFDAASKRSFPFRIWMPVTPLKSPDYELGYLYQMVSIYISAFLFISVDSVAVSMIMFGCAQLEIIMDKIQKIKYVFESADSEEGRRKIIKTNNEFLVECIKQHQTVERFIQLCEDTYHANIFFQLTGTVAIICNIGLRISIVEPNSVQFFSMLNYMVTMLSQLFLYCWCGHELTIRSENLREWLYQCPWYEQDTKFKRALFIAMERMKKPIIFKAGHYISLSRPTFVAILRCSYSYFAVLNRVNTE
Chain of HarmOR59 (A0A7T3KAU6 entry or part of it): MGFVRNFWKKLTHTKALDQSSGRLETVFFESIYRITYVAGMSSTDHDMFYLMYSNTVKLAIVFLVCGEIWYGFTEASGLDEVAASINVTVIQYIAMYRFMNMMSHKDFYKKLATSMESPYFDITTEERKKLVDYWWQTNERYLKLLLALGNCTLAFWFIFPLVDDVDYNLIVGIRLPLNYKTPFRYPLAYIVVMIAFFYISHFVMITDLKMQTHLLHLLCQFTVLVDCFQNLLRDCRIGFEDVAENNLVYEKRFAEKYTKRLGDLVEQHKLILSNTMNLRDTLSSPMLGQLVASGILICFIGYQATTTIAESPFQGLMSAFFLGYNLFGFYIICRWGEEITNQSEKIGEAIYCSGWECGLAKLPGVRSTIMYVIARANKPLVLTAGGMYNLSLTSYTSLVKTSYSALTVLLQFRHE
Chain of HarmOR67 (A0A7T3KAH1 entry or part of it): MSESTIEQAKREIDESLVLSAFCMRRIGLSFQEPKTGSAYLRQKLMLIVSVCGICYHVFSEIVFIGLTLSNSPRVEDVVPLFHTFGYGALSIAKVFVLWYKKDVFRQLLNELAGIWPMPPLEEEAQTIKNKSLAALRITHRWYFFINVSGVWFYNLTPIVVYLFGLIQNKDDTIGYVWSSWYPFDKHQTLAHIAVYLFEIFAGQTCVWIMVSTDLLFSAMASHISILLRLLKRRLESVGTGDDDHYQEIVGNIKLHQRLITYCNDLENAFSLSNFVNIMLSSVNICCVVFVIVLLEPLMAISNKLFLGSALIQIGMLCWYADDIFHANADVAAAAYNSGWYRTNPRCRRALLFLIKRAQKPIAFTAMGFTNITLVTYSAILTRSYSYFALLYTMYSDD
Chain of HarmOR31 (A0A7T3N2E9 entry or part of it): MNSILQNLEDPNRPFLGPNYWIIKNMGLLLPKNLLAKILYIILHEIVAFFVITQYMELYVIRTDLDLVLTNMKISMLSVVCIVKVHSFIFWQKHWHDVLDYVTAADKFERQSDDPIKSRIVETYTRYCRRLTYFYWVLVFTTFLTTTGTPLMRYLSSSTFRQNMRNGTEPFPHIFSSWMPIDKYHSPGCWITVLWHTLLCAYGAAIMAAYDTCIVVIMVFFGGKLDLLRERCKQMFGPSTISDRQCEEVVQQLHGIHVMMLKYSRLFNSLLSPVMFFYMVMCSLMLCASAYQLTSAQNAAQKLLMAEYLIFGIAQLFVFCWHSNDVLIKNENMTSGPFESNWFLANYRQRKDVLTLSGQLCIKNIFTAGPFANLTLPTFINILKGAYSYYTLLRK

SMILES | EC50 [1] [µM] | EAG response of HarmOR42 knock-out mutants compared with wild-type moths [3] | EC50 [4] [µM] | ligand tuning of HarmOR42 [5] | EC50 [6] [µM] | further results
O=Cc1ccccc1 [Benzaldehyde] | 12 |  |  |  |  | EC50 [2]: 124 µM; ligand tuning of HarmOR10 ([2]; 67 odorants at 10^−4 M): specific ligand
CCCCCCC=O [Heptanal] |  | significantly decreased | 302 | minor ligands |  | 
CCCCOC(=O)c1ccccc1O [Butyl salicylate] |  |  |  |  | 402 | response of HarmOR27 ([7]; odorant 10^−4 M): maximal response; response of HarmOR27 ([7]; odorant 10^−5 M): failed to evoke any current
O=C/C=C/c1ccccc1 [Cinnamaldehyde] | 1.72 | significantly decreased |  | minor ligands |  | ligand tuning of HarmOR42 orthologs [8]: minor ligands; response of EsemOR19 [9]: very weak current; also recorded: responded
CCc1ccc(C(C)=O)cc1 [4'-Ethylacetophenone] |  |  |  |  | 16.7 | 
CCCCCCCCO [1-Octanol] |  |  | 33.1 |  |  | EC50 [10]: 96.1 µM
